Each structure is given as a SMILES string.

The target in the assay is BfpR-His6 (Francisella tularensis, UniProt A0Q7V5). The following applies: 5 uM protein (printed 'Five micrometers'), 2X SYPRO Orange; heated to 95 °C.
BfpR-His6, sequence (A0Q7V5 1-229): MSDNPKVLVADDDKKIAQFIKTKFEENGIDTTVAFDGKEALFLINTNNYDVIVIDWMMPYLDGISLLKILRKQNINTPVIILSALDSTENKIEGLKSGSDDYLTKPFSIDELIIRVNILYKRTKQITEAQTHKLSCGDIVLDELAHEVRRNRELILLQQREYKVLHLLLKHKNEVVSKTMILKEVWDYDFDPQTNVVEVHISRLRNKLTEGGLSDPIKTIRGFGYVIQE

With `COc1ccc(O)c2ccccc12` [walrycin A, 4-methoxy-1-naphthol], the thermal shift result is listed as “a protein population not seen in the presence of the control compounds appears”.
